# Measured values as given in US9745346B2, “Antimicrobial peptides and their application” (INFINITEC ACTIVOS S.L., priority 2014, dated 2017).
# *1 amine or outer side, *2 acyl side, *3 side chain or, on linkers, in order; H or OH if unused. Where a SMILES comes first, the peptide text is derived from it. The star is where a group is joined. NH(CH2)3(OCH2CH2)2O(CH2)3NH = C(CN[*:1])COCCOCCOCCCN[*:2]; Palmitoyl = CCCCCCCCCCCCCCCC(=O)*
# Columns and labels:
# LPS from E. Coli 055:B5 = assay: LPS-neutralizing activity, chromogenic Limulus Amebocyte Lysate (LAL) test; type: biochemical; settings: LPS 100 pg/mL, 45 min at 37° C., read-out: LPS-neutralization activity IC50 ± SD
# Description: All solutions used in the LPS-neutralizing activity assay were tested to ensure they were endotoxin-free and material was sterilized by heating 3 h at 180° C. LPS from E. Coli 055:B5 and Polymyxin B were purchased from Sigma. LPS-neutralizing activity was measured using the chromogenic Limulus Amebocyte Lysate (LAL) test 40 following the manufacturer's instructions (Cambrex). LAL reagent contains a clottable protein that is activated in the presence of non-neutralized LPS and is an extremely sensitive indicator of the presence of endotoxin. When activated, this enzyme catalyses the release of p-nitroaniline (pNA) from the colorless chromogenic substrate Ac-Ile-Glu-Ala-Arg-pNA. The pNA released was measured photometrically at 405 nm in a Rosys Anthos 2010 microtiter plate reader (Tecnomara AG, Zurich, Switzerland). Peptides were incubated at a range of concentrations (200 to 0.001 μM) with LPS (100 pg/mL) in a 96-well microtiter for 45 min at 37° C. Polymyxin B (10 μg/mL) was used as positive control. LAL (12.5 μL) was added to start the reaction at 37° C. After 16 min, non-neutralized LPS was detected after a 10 min incubation with the chromogenic substrate (25 μ) Acetic acid (25% v/v final concentration) was added to stop the reaction and the absorbance was monitored at 405 nm in a Multiskan Ascent microtiter plate reader (ThermoLabsystems). IC50 (the concentration necessary to in vitro neutralize 50% of LPS) values were determined by a serial dilution assay using 100 pg/mL of LPS and a range of peptide concentrations as mentioned above.
# Bacillus megaterium = settings: 21 h
# Description: (§1) Minimum inhibitory concentration (MIC) is the lowest concentration of an antimicrobial that will inhibit the growth occurred between time zero and […].
# (§2) The MIC of peptides of examples 1, 2 and 3 was determined using gram negative bacteria (Escherichia Coli, Vibrio angillarum, Vibrio ordalii, Enterobacter aerogenes, Aeromonas hydrophila, Vibrio parahemolyticus, Bacillus Oleronius and Salmonella tiphy) and gram positive bacteria (Bacillus megaterium, Micrococcus luteus, Staphylococcus aureus and Staphylococcus epidermidis).
# (§3) To initiate the exponential phase of bacterial growth prior to the assay, a sample of each bacteria type was allowed to grow overnight at 37° C. in Mueller-Hinton broth and incubated at 37° C. MRSA (Methicillin Resistant Staphylococcus aureus) was grown at 35° C. in cation-adjusted MH broth.
# (§4) A final concentration of 1×10^5 CFU/ml was used in all assays. The assays were carried out in 96-well flat-bottom plates. Bacterial suspension in 2× concentrated broth was added to the different peptides at concentrations that varied from 2.500 to 1 μ/mL in H2O in serial twofold dilutions (Time t0). The plates were then incubated for 21 h (Time tf) at 37° C. […] The concentration necessary to inhibit 50% bacterial growth (IC50) could be by using sigmoidal curve-fitting software.
# Bacillus oleronius = settings: 21 h
# Description: as §1, §2, §3, §4
# E. Coli = settings: 21 h
# Description: as §1, §2, §3, §4
# Enterobacter hydrophila = settings: 21 h
# Description: as §1, §2, §3, §4
# Micrococcus luteus = settings: 21 h
# Description: as §1, §2, §3, §4
# Salmonella tiphy = settings: 1×10^5 CFU/ml, 21 h at 37° C., optical density at 620 nm
# Description: as §1, §2, §3, §4
# Staphylococcus aureus = settings: 21 h
# Description: as §1, §2, §3, §4
# [1] = tested on: Staphylococcus epidermidis; settings: 21 h
# Description: as §1, §2, §3, §4
# Vibrio angillarum = settings: 21 h
# Description: as §1, §2, §3, §4
# Vibro ordalii = settings: 21 h
# Description: as §1, §2, §3, §4
# Fusarium oxysporum = type: cell-based
# Description: (§5) For this essay, diluted spores kept at −80° C. were used (fresh ones in the case of de Saprolegnia sp.), 1×10^4 spores/ml at the specific media for every fungi. 10 μg/ml of tetracycline were added to avoid bacterial action. […] of peptide solution plus […] of spore solution alongside the adequated media are added to a 96 wells microplaque. As a positive control a culture of the spores at the same concentration than the assay but without peptide. The MICs were defined as the lowest concentrations of peptides at which total inhibition of growth is observed and no change in optical density at 595 nm occurred between the measures obtained at t0 and tf.
# Neurospora crassa = type: cell-based
# Description: as §5
# Saprolegnia sp = type: cell-based
# Description: as §5
# in vitro = type: cell-based; settings: human
# Description: As a safety test for the peptides of the present invention the hemolytic activity was determined by using human erythrocytes (RBCs).
# The assays were carried out in 96-well flat-bottom plates against a 0.25% RBC suspension as described elsewhere (Blondelle, S. E., L. R. Simpkins, E. Pérez-Payá, and R. A. Houghten. 1993. Influence of tryptophan residues on melitin's hemolytic activity. Biochim. Biophys. Acta 1202:331-336.).
# In brief, peptide mixtures were added to the RBC solution at concentrations that varied from 500 to 4 μg/mL in serial twofold dilutions. Following incubation at 37° C. for 1 hour, the plates were centrifuged at 2.800 rpm for 5 min. The supernatant was separated from the pellet, an its optical density at 414 nm was measured. The hemolytic dose to lyse 50% of RBCs (IC50) was calculated by using the sigmoidal curve-fitting software Graphpad.
Molecule,IC50 (LPS from E. Coli 055:B5),"Gram positive bacteria MIC, Bacillus megaterium (Bacillus megaterium)","Gram negative bacteria MIC, Bacillus oleronius (Bacillus oleronius)","Gram negative bacteria MIC, E. Coli (E. Coli)","Gram negative bacteria MIC, Enterobacter hydrophila (Enterobacter hydrophila)","Gram positive bacteria MIC, Micrococcus luteus (Micrococcus luteus)","Gram negative bacteria MIC, Salmonella tiphy (Salmonella tiphy)","Gram positive bacteria MIC, Staphylococcus aureus (Staphylococcus aureus)","Gram positive bacteria MIC, Staphylococcus epidermidis [1]","Gram negative bacteria MIC, Vibrio angillarum (Vibrio angillarum)","Gram negative bacteria MIC, Vibro ordalii (Vibro ordalii)","MIC, Fusarium oxysporum (Fusarium oxysporum)","MIC, Neurospora crassa (Neurospora crassa)","MIC, Saprolegnia sp (Saprolegnia sp)",HC50 at 1 hour (in vitro)
"AQKRFL [compound 6, Ac-AQKRFL-NH2]",46 ± 1.1 µM,,,,,,,,,,,,,,
"CCCCCCCCCCCCCCCC(=O)N[C@@H](CCCCN)C(=O)N[C@@H](C)C(=O)N[C@@H](CCC(N)=O)C(=O)N[C@@H](CCCCN)C(=O)N[C@@H](CCCNC(=N)N)C(=O)N[C@@H](Cc1ccccc1)C(N)=O [Example 2, Palm-KAQKRF-NH2] (Palmitoyl-KAQKRF-NH2)",,12.3 µg/mL,9.7 µg/mL,5.6 µg/mL,11.3 µg/mL,5.6 µg/mL,6.1 µg/mL,5.7 µg/mL,5.6 µg/mL,31.0 µg/mL,7.4 µg/mL,0.5 µg/mL,0.2 µg/mL,0.1 µg/mL,> 500 µg/mL
"CC(=O)N[C@@H](CCCCN)C(=O)N[C@@H](C)C(=O)N[C@@H](CCC(N)=O)C(=O)N[C@@H](CCCCN)C(=O)N[C@@H](CCCNC(=N)N)C(=O)N[C@@H](Cc1ccccc1)C(N)=O [Example 1, Ac-KAQKRF-NH2] (Ac-KAQKRF-NH2)",,13.7 µg/mL,11.9 µg/mL,10.8 µg/mL,14.2 µg/mL,6.0 µg/mL,11.7 µg/mL,11.7 µg/mL,11.4 µg/mL,31.2 µg/mL,10.2 µg/mL,0.9 µg/mL,0.9 µg/mL,0.2 µg/mL,> 500 µg/mL
"IKISGKWKAQKRFLKM [compound 1, Ac-IKISGKWKAQKRFLKM-NH2]",34 ± 1.3 µM,,,,,,,,,,,,,,
"CCCCCCCCCCCCCCCC(=O)N[C@@H](CCCCN)C(=O)N[C@@H](C)C(=O)N[C@@H](CCC(N)=O)C(=O)N[C@@H](CCCCN)C(=O)N[C@@H](CCCNC(=N)N)C(=O)N[C@@H](Cc1ccccc1)C(=O)NCCCOCCOCCOCCCN [Example 3, Palm-KAQKRF-NH—(CH2)3—(OCH2CH2)3—CH2—NH2] (Palmitoyl-KAQKRF-{NH(CH2)3(OCH2CH2)2O(CH2)3NH})",,12.1 µg/mL,8.0 µg/mL,5.5 µg/mL,11.6 µg/mL,5.5 µg/mL,5.8 µg/mL,5.5 µg/mL,5.8 µg/mL,30.0 µg/mL,8.2 µg/mL,0.4 µg/mL,0.3 µg/mL,0.1 µg/mL,> 500 µg/mL
"KWKAQK [compound 5, Ac-KWKAQK-NH2]",47 ± 1.1 µM,,,,,,,,,,,,,,
"KISGKW [compound 3, Ac-KISGKW-NH2]",96 ± 1.1 µM,,,,,,,,,,,,,,
"SGKWKA [compound 4, Ac-SGKWKA-NH2]",85 ± 1.4 µM,,,,,,,,,,,,,,
"IKISGK [compound 2, Ac-IKISGK-NH2]",105 ± 1.2 µM,,,,,,,,,,,,,,
